{"source": "patent US9919027B2", "about": "“Lipid nanoparticle of polymyxin” (priority 2013, dated 2018)", "key": {"A549 cell line": {"system": "A549 cell line", "test": "Cell viability IC50 (CCK-8) as toxicity marker, A549", "format": "cell-based, human", "conditions": "24 h incubation, triplicate", "method": "(§1) The median inhibition concentration value (IC50) refers to the concentration of an assayed sample required to inhibit the growth of the 50% of the cell population. In this case IC50 value was estimated as a toxicity marker, as the cell viability assay is run under human cell (A549 and H441 cell lines, which are immortalised lines derived from human adenocarcinomic epithelial cell). Cells (at a density of 12,000 cells per well in a 96-well plate) were grown in Dulbecco's Modified Eagle Medium (DMEM) supplemented with 10% foetal bovine serum (FBS), 1% L-glutamine, 1% penicillin/streptomycin solution and 1% of Minimum Essential Medium non-essential amino acids 100× (MEM-NEAA) at 37° C. and 5% CO2 for 24 hours. Decreasing concentrations of nanoparticles 1b and 2b and free colistimethate sodium, starting from 10 mg/ml to 0.07812 mg/ml were added to the cells, diluted in DMEM supplemented with 0.5% serum and incubated at 37°±2° C. and 5% CO2 for 24 h. Cell viability was assessed by means of the Cell Counting Kit 8 after a washing step. With this aim, 10% of CCK-8 reagent was added to each well and incubated in a wet chamber for 4 hours at 37°±2° C. and 5% CO2. Subsequently, the absorbance was read at 450 nm and at 650 nm as the reference wavelength. The absorbance was directly proportional to the number of living cells in culture. […]"}, "H441 cell line": {"system": "H441 cell line", "test": "Cell viability IC50 (CCK-8) as toxicity marker, H441", "format": "cell-based, human", "conditions": "24 h incubation, triplicate", "method": "as §1"}, "[1]": {"system": "31 P. aeruginosa strains obtained from 31 patients with cystic fibrosis", "test": "In vitro minimum inhibitory concentration (MIC) in MHBCA broth", "format": "cell-based", "conditions": "24 hours at 37° C.", "method": "The antibacterial action of an antibiotic can be measured by means of the minimum inhibitory concentration, which consists of the concentration of the antibiotic required to prevent bacterial growth after the incubation of 10^4-5 bacteria in rapid growth phase, in an aerobic, protein-free medium with pH 7.2 for an incubation period of one night. This term is used to determine the sensitivity of the bacteria to a specific antibiotic agent.\n100 μl of a concentration of 10^4 Colony Forming Units (CFU)/ml of 31 P. aeruginosa strains obtained from 31 patients with cystic fibrosis, 13 strains of which were mucus producers, were incubated for 24 hours at 37° C. in a Mueller Hinton broth, cation-adjusted (MHBCA) medium, corresponding to between 20 mg and 25 mg per liter of calcium and between 10 mg and 12.5 mg per liter of magnesium, assuring the reproducibility of the results for P. aeruginosa, in the presence of colistimethate sodium, and nanoparticles obtained according to Examples 1b and 2b, at different concentrations (less than 0.25, 0.25, 0.5, 1, 2, 4, 8 and 32 μg/ml)."}, "[2]": {"system": "mucosa producing P. aeruginosa strain", "test": "In vivo efficacy in CD1 mice with pulmonary infection, lung bacteria count", "conditions": "infected CD1 mice; intratracheal, once a day for three days; 3000 IU (0.24 mg colistimethate sodium equivalent)", "method": "To carry out the in vivo toxicity and efficacy assays of the nanoparticles of the present invention, it was necessary to establish a rodent infection model. An intratracheal administration of different concentrations of mucosa producing P. aeruginosa included in microspheres (Concentration 1: 5×10^4 CFU, Concentration 2: 2.4×10^7 CFU, and Concentration 3: 3.89×10^10), obtained from a patient with cystic fibrosis, suspended in PBS, in CD1 mice was carried out, administering a different concentration to each rodent, to establish the optimum concentration for generating a suitable pulmonary infection, capable of making the rodents sick without causing their immediate death.\nFive mice were used as the control group and 64 mice infected with the inoculation of the bacteria of a mucosa producing P. aeruginosa strain, at a concentration of 2.4×10^7 CFU, as explained in Example 8, were used. […] The amounts were calculated by adjusting the dose recommended in humans with respect to the weight of the mice (3000 IU, equivalent to 0.24 mg of free colistimethate sodium, equivalent to 2.88 mg of the nanoparticles according to Example 1b and 2.52 mg of nanoparticles according to Example 2b). […]"}}, "data": [{"substance": "colistimethate sodium", "values": [{"measurement": "IC50 (median inhibition concentration, cell viability)", "setting": "A549 cell line", "result": "101.27 ± 14.44", "unit": "µg/mL"}, {"measurement": "IC50 (median inhibition concentration, cell viability)", "setting": "H441 cell line", "result": "6.58 ± 0.72", "unit": "µg/mL"}, {"measurement": "MIC", "setting": "[1]; obtained for 16% of the 31 strains", "result": 0.5, "unit": "µg/mL"}, {"measurement": "MIC", "setting": "[1]; obtained for 25% of the 31 strains", "result": 1, "unit": "µg/mL"}, {"measurement": "MIC", "setting": "[1]; obtained for 48% of the 31 strains", "result": 2, "unit": "µg/mL"}, {"measurement": "MIC", "setting": "[1]; obtained for the remaining strains", "result": 4, "unit": "µg/mL"}, {"measurement": "Bacterial count (log CFU for every 2 lungs)", "setting": "[2]", "result": "4.9 ± 0.2", "unit": "log CFU for every 2 lungs"}]}]}
